Data on 18 molecules can be found in PubChem BioAssay (NCI).

What all share (assay): NCI anticancer screen, dose series, 48 h
Experiment [1] deals with M14 melanoma.
Experiment [2] concerns 786-0 renal.
Experiment [3] concerns SK-MEL-5 melanoma.
Experiment [4] deals with TK-10 renal.
Experiment [5] deals with RXF 393 renal.
Experiment [6] relates to OVCAR-5 ovarian.
For experiment [7], the system named is SK-OV-3 ovarian.
For experiment [8], the system named is NCI/ADR-RES ovarian.
Experiment [9] relates to UACC-257 melanoma.
Experiment [10] has as its system MDA-N.
The test system of experiment [11] is HCT-15 colon.

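Cells were grown in 96-well plates and exposed to each compound for 48 hours at five concentrations; endpoints were interpolated linearly between bracketing concentrations, or set to the highest concentration if not reached. TGI: total growth inhibition.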

On to `c1ccc(-c2cc(-c3ccccc3)nc(-c3ccncc3)c2)cc1`, for which the TGI in experiment [1], in experiment [2], in experiment [3], in [4], in experiment [5] and in experiment [6] was over 100 µM in each case. Also, the TGI in experiment [7], in [8], in [9], in experiment [10] and in experiment [11] was over 100 µM each time.
With `O=C1N[C@@H]([C@H]2CC[C@H](Cl)CN2)C(=O)N[C@H]1[C@H]1CC[C@H](Cl)CN1`, the TGI in experiment [1] is 2.3 µM; in experiment [2], 0.61 µM; in experiment [3], 5.53 µM; in [4], 36.6 µM; in [5], 12.2 µM; in experiment [6] it was 9.05 µM. Also, the TGI in experiment [7] came to 2.31 µM; in [8], 10.4 µM; in experiment [9], 15.1 µM; in experiment [10] it was 4.98 µM; in experiment [11], 57.5 µM.
For `CN(CCNC(=O)c1nn(C)c2c1Cc1ccccc1-2)CCNC(=O)c1nn(C)c2c1Cc1ccccc1-2`, the TGI in experiment [1] worked out at 26.5 µM; in experiment [2] it was 27.7 µM; in experiment [3], 24.5 µM; in experiment [4], 29.6 µM; in experiment [5] it was 29.5 µM; in experiment [6], 89 µM. Moreover, the TGI in experiment [7] worked out at 43.7 µM; in experiment [8] it was 70.4 µM; in experiment [9] it was 27.5 µM; in [10], 29.4 µM; in [11] it was 34.4 µM.
In the case of `C[N+]1(CC[N+]2(C)CCCC2c2cccnc2)CCCC1c1cccnc1` (stereo not drawn), the TGI in experiment [1] was over 100 µM; in [2] it was 90.7 µM; in experiment [3] it was over 100 µM; in experiment [4], over 100 µM; in experiment [5], over 100 µM; in [6] it was over 100 µM. The TGI in experiment [7], in [8], in experiment [9], in experiment [10] and in experiment [11] was over 100 µM throughout.
In the case of `CCn1c(=O)c2nc(SC)sc2n(-c2ccccc2)c1=S`, the TGI in experiment [1], in [2], in experiment [3], in [4], in experiment [5] and in [6] was over 100 µM in each case. For the same molecule, the TGI in [7], in [8], in [9], in experiment [10] and in experiment [11] was over 100 µM throughout.
As to `Cc1cccc(NC(=S)NNC(=O)c2cc(-c3ccccc3)nc3ccccc23)c1`, the TGI in experiment [1] was over 100 µM; in [2] it was 85.1 µM; in experiment [3], 39 µM; in experiment [4] it was over 100 µM; in experiment [5], 68.3 µM; in experiment [6] it was over 100 µM. Also, the TGI was 59.2 µM in experiment [7]; over 100 µM in experiment [8]; over 100 µM in experiment [9]; over 100 µM in experiment [10]; over 100 µM in [11].
Take `CCCCCCCC(=O)NC(C)(C)C(=O)NCC(=O)NC(CC(C)C)C(=O)NC(C)(C)C(=O)NCC(=O)NCC(=O)NC(CC(C)C)C(=O)NC(C)(C)C(=O)NCC(=O)NC(C(=O)NC(CO)CC(C)C)C(C)CC` (stereo not drawn): the TGI in [1] was 7.62 µM; in experiment [2] it was 8.11 µM; in experiment [3] it was 7.19 µM; in experiment [4], 8.17 µM; in experiment [5], 7.97 µM; in experiment [6], 6.94 µM. In addition, the TGI in experiment [7] is 7.61 µM; in experiment [8] it was 9.12 µM; in experiment [9], 7.96 µM; in experiment [10], 7.37 µM; in [11], 10.3 µM.
Turning to `O=C(Cn1c(=O)oc2ccccc21)N(c1ccccc1)c1ccccc1`, the TGI in [1], in [2], in experiment [3], in [4], in [5] and in experiment [6] was over 100 µM throughout. The TGI in experiment [7], in [8], in experiment [9], in experiment [10] and in experiment [11] was over 100 µM in each case.
As to `Clc1ccc(Cc2nc3cc(Cl)c(Cl)cc3n2CC2CCCN3CCCCC23)cc1` (stereo not drawn), the TGI in [1] was determined as 7.95 µM; in experiment [2], 23.5 µM; in [3], 23.3 µM; in [4] it was 27.7 µM; in experiment [5], 37.6 µM; in experiment [6], 26 µM. Moreover, the TGI is 32.8 µM in [7]; 27.3 µM in [8]; 13 µM in experiment [9]; 24.2 µM in experiment [10]; 23.3 µM in [11].
Take `O=[N+]([O-])c1ccc(CSC2=C(c3ccc(Cl)cc3)S/C(=C3\SC(SCc4ccc([N+](=O)[O-])cc4)=C(c4ccc(Cl)cc4)S3)S2)cc1`: the TGI in [1], in experiment [2], in [3], in experiment [4], in [5] and in experiment [6] was over 100 µM in each case. The TGI in experiment [7], in [8], in [9], in experiment [10] and in experiment [11] was over 100 µM in each case.
For `N#CC1=C(N)OC2=C(CCCc3ccc([N+](=O)[O-])cc32)C1c1ccc(Cl)cc1` (stereo not drawn), the TGI in experiment [1] was 49.8 µM; in experiment [2] it was 23.9 µM; in [3] it was 15.7 µM; in experiment [4] it was over 100 µM; in [5], 19.5 µM; in experiment [6], over 100 µM. Also, the TGI is over 100 µM in experiment [7]; 78.1 µM in experiment [8]; over 100 µM in [9]; 39.6 µM in [10]; over 100 µM in experiment [11].
As to `CCOC(=O)c1cccc(N=NNc2cccc(C(=O)OCC)c2)c1`, the TGI in experiment [1] is over 100 µM; in [2], 42.6 µM; in [3], over 100 µM; in [4] it was over 100 µM; in experiment [5], 62.9 µM; in experiment [6], over 100 µM. The TGI is 93.4 µM in [7]; over 100 µM in [8]; over 100 µM in [9]; over 100 µM in experiment [10]; over 100 µM in [11].
As to `CC[C@@]1(O)C(=O)OCc2c1cc1n(c2=O)Cc2c-1nc1ccc(N)cc1c2CC[Si](C)(C)C`, the TGI in experiment [1] was under 0.0499 µM; in [2], under 0.0276 µM; in experiment [3], under 0.0222 µM; in experiment [4] it was 3.88 µM; in experiment [5] it was 0.257 µM; in [6], 1 µM. The TGI was found to be 1.63 µM in [7]; 2.02 µM in experiment [8]; 0.155 µM in [9]; 1.62 µM in experiment [10]; 14.2 µM in [11].
In the case of `Cc1ccc([N+](=O)[O-])cc1S(=O)(=O)Nc1ccc(C2=NN(S(=O)(=O)c3cc([N+](=O)[O-])ccc3C)C(c3ccccc3O)C2)cc1` (stereo not drawn), the TGI in experiment [1], in experiment [2], in experiment [3], in experiment [4], in experiment [5] and in experiment [6] was over 100 µM each time. The TGI in experiment [7], in [8], in experiment [9], in experiment [10] and in experiment [11] was over 100 µM in each case.
For the molecule `C=CCCCCCCCCCOC1C=CC(O)C(CO)O1` (stereo not drawn), the TGI in experiment [1] was 36 µM; in experiment [2], over 100 µM; in experiment [3], 48.1 µM; in experiment [4], over 100 µM; in experiment [5], over 100 µM; in experiment [6], over 100 µM. Also, the TGI in [7] is over 100 µM; in [8], over 100 µM; in experiment [9], 61.4 µM; in experiment [10] it was 82.1 µM; in experiment [11], over 100 µM.
`COc1ccc(/C=N/n2c(-c3ccccc3)n[nH]c2=O)c(OC)c1`: the TGI in [1] is over 100 µM; in experiment [2], over 100 µM; in experiment [3], over 100 µM; in experiment [4], over 71.5 µM; in [5], over 93.4 µM; in experiment [6], over 100 µM. Moreover, the TGI in experiment [7] is over 74.6 µM; in [8], over 73.9 µM; in [9] it was over 100 µM; in [10] it was over 100 µM; in [11], over 100 µM.
Regarding `CC(C)C(Sc1nc(N)nc2nc[nH]c12)C(=O)O` (stereo not drawn), the TGI in [1], in experiment [2], in [3], in experiment [4], in [5] and in [6] was over 100 µM each time. The TGI in experiment [7], in experiment [8], in experiment [9], in experiment [10] and in experiment [11] was over 100 µM each time.
For the molecule `Cc1n[nH]c(=O)c2c3c([nH]c12)-c1ccccc1C3`, the TGI in experiment [1], in [2], in experiment [3], in experiment [4], in experiment [5] and in experiment [6] was over 100 µM throughout. Besides, the TGI in experiment [7], in experiment [8], in [9], in experiment [10] and in experiment [11] was over 100 µM in each case.
